The values below come from US7612067B2, “Imidazopyridazine compounds” (Eli Lilly and Company, priority 2005, dated 2009).

Residue numbers refer to the chain shown, from its start. Counter-ions that a name gives are not always drawn. Like-named read-outs stand apart in the source and are kept apart here.

A short description of data set [1]: Volume of distribution after single intravenous dose. The data set is classed as in vivo, rat. To be noted: male Sprague Dawley rats, single 3 mg/kg intravenous dose. The method, then:
The volume of distribution (Vdist) relates the amount of the drug in the body to the concentration of the drug in the blood or plasma. The volume of distribution refers to the fluid volume that would be required to contain the total amount of the drug in the body at the same concentration as in the blood or plasma: Vdist=amount of drug in the body/concentration of drug in blood or plasma (Goodman and Gillman's). For a 10 mg dose and a plasma concentration of 10 mg/L, the volume of distribution would be 1 liter. The volume of distribution reflects the extent to which the drug is present in the extravascular tissue. A large volume of distribution reflects the tendency of a compound to bind to the tissue components compared with plasma protein binding. In a clinical setting, Vdist can be used to determine a loading dose achieve a steady state concentration.
To test for volume of distribution, Male Sprague Dawley rats (N=3) are administered a single 3 mg/kg intravenous dose of compound. Multiple plasma samples are collected at time points from 0.08 to 24 hours post-dose. The plasma samples are analyzed by LC/MS/MS to determine the plasma concentrations. Plasma pharmacokinetic calculations are performed to determine the pharmacokinetic parameters including Vdist and plasma clearance (Clp).

The conditions of data set [2]: single intravenous dose, comparison CRF antagonists with literature references; cited from earlier work.
Another data set deals with T1, human CRF2 (Homo sapiens, UniProt Q13324).
T1 construct: expressed in transfected cells; membranes used
T1 sequence (Q13324 1-411): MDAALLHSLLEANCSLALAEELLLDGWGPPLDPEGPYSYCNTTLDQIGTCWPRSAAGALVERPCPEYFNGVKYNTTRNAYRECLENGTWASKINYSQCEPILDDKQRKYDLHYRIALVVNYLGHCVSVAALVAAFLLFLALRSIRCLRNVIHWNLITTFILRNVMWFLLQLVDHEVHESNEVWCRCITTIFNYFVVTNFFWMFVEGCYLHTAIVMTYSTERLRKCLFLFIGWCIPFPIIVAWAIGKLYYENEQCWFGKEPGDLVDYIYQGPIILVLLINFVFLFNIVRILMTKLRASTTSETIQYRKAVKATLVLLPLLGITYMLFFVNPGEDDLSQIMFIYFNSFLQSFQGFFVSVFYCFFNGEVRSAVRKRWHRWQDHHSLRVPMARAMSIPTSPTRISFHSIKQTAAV
Description: CRF2 filter binding assay. To be noted: 50 μM compound, HEK-hCRF2 membranes, 125I-sauvagine. The procedure:
The limitations of plasmid-based human CRF2 expression, in terms of generating a recombinant cell line with sufficient receptor density to develop a binding assay, are overcome by using a Phoenix retroviral expression system licensed from Stanford. The stable HEK-hCRF2 cell line is used to prepare membranes and binding reactions (200 μl) are set up as follows: 50 ul of ^125I-sauvagine (0.2 nM final concentration), 50 μl compound and 100 μl CRF2 membrane (25 μg/reaction). The reactions are incubated at room temperature for 2 hours and then terminated by filtration through pre-treated FB Millipore glass fiber filter plates (96 well). The plates are washed twice with ice-cold assay buffer (50 mM tris, 12.5 mM NaCl, 1 mM EDTA, 10 mM MgCl2, 0.05% BSA, pH 7.2), air dried over night and counted with 100 μl Microscint 40 in a MicroBeta counter. Non-specific binding (NSB) is determined in the presence of 0.5 μM non-labeled sauvagine. Alternatively, compounds are evaluated using a Scintillation Proximity assay. […] Bound radioactivity is assessed using a Wallac Trilux scintillation counter. Binding is assessed typically using triplicate determinations and the median data points plotted by Graph Pad Prism. […]

The next data set has as its target T2, human CRF1 (Homo sapiens, UniProt P34998).
T2 construct: expressed in transfected cells; membranes used
T2 sequence (P34998 24-415): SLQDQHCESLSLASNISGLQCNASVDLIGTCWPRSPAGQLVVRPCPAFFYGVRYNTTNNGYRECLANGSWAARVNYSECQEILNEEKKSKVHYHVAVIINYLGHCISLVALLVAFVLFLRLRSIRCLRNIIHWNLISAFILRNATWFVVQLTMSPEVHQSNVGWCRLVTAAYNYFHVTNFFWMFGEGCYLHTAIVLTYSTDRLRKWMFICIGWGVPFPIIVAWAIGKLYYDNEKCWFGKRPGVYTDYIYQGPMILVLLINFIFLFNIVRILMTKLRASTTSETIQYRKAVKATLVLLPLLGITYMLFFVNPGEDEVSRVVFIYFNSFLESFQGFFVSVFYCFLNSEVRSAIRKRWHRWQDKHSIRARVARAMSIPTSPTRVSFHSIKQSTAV
Description: CRF1 filter binding assay. The note with it: HEK-hCRF1 membranes, 125I-sauvagine; read-out: Ki (inhibition constant). The method, then: The limitations of plasmid-based human CRF1 expression, in terms of generating a recombinant cell line with sufficient receptor density to develop a binding assay, are overcome by using a Phoenix retroviral expression system licensed from Stanford. The stable HEK-hCRF1 cell line is used to prepare membranes and binding reactions (200 μl) are set up as follows: 50 μl of ^125I-sauvagine (0.2 nM final), 50 μl compound and 100 μl CRF1 membrane (25 μg/reaction). The reactions are incubated at room temperature for 2 hours and then terminated by filtration through pre-treated FB Millipore glass fiber filter plates (96 well). The plates are wash twice with ice-cold assay buffer (50 mM tris, 12.5 mM NaCl, 1 mM EDTA, 10 mM MgCl2, 0.05% BSA, pH 7.2), air dried over night and counted with 100 μl Microscint 40 in a MicroBeta counter. Non-specific binding (NSB) is determined in the presence of 0.5 μM non-labeled sauvagine. Triplicate determinations are typically run and the median data points plotted by Graph Pad Prism.

In data set [3] the target is T3, binding of 125I-sauvagine to the cerebellum (Rattus norvegicus, UniProt P35353).
T3 construct: from tissue; host or cells: rat cerebellum
T3 sequence (P35353 24-415): T2 sequence (P34998 24-415) with H6R, S9N, A13T, I16V, M153V, G163A, I209V, Y229H, H356R
Description: In vivo potency assessment using ex vivo binding. The note with it: oral route, ex vivo 125I-sauvagine binding to cerebellum. The method, then:
To assess in vivo potency, a compound of the present invention is evaluated using ex vivo binding. Using the procedures as provided in D. R. Gehlert et al., EJP 509: 145-153 (2005), a compound is administered to a rat via the oral route.

For orientation: Ki means a dissociation constant, usually derived from enzyme kinetics or from competition with a known ligand. As usually defined, the ED50 is the dose that gives a 50% effect, or the effect in half of the subjects. Low readings indicate an effect at a small dose, high ones a need for a large dose. Usually inhibition stands for the drop in the measured response relative to a control, in per cent.

As to `CCC(CC)c1cc(C)nn2c(-c3sc(-c4ccc(F)cc4)cc3C)c(C)nc12` [Example 39, 8-(1-ethyl-propyl)-3-[5-(4-fluoro-phenyl)-3-methyl-thiophen-2-yl]-2,6-dimethyl-imidazo[1,2-b]pyridazine], the “rat Vdist” value in data set [1] amounted to 17 L/kg.
On to `CCCN(CCC)c1cc(C)nc2c(-c3cnc(N(C)C)cc3C)c(C)nn12` [NBI30775], for which, in data set [2], the “rat Vdist” value was 76 L/kg.
Regarding `CCC(CC)c1cc(C)nn2c(-c3sc(-c4ncnn4C)cc3Cl)c(C)nc12` [Example 88, 3-[3-chloro-5-(2-methyl-2H-[1,2,4]triazol-3-yl)-thiophen-2-yl]-8-(1-ethyl-propyl)-2,6-dimethyl-imidazo[1,2-b]pyridazine], in data set [1], the “rat Vdist” value is 44 L/kg.
For `CCC(CC)c1cc(C)nn2c(-c3sc(N4CCOCC4)nc3Cl)c(C)nc12` [Example 199, N-{4-chloro-5-[8-(1-ethyl-propyl)-2,6-dimethyl-imidazo[1,2-b]pyridazin-3-yl]-thiazol-2-yl}-morpholine], the “rat Vdist” value in data set [1] worked out at 2 L/kg. For the same molecule, at human CRF2, the “percent inhibition at 50 μM” value was 16.9±1.9%. The Ki on human CRF1 stood at 9.98 ± 0.72 nM. This molecule returned an ED50 in data set [3] of 1.3 mg/kg.
`CCC(CC)c1cc(C)nn2c(-c3sc(-c4ncnn4C)nc3Br)c(C)nc12` [Example 48, 3-[4-bromo-2-(2-methyl-2H-[1,2,4]triazol-3-yl)-thiazol-5-yl]-8-(1-ethyl-propyl)-2,6-dimethyl-imidazo[1,2-b]pyridazine]: the “rat Vdist” value in data set [1] worked out at 9 L/kg.
Turning to `CCCCN(CC)c1nc(C)nc2c1c(C)cn2-c1c(C)cc(C)cc1C` [CP154526], in data set [2], the “rat Vdist” value is 114 L/kg.
Regarding `CCC(CC)c1cc(C)nn2c(-c3sc(N4CCOCC4)nc3Cl)c(C)nc12` [Example 102, N-{4-chloro-5-[8-(1-ethyl-propyl)-2,6-dimethyl-imidazo[1,2-b]pyridazin-3-yl]-thiazol-2-yl}-morpholine, hydrochloride salt], at human CRF2 (read-out: percent inhibition at 50 μM), the inhibition at 50 µM was 9 ± 2.6%. The Ki at human CRF1 came out at 4.92 ± 0.57 nM.
